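These data come from cells grown in 96-well plates and exposed to compound for 48 hours at five concentrations. At the GI50, growth is halved. At the TGI there is no net growth.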
Experiments:
Assay in all cases: growth of human tumour cells (NCI), 48 h
NCI-H522 lung = test system: NCI-H522 lung
SK-MEL-2 melanoma = test system: SK-MEL-2 melanoma
KM20L2 colon = test system: KM20L2 colon
HL-60(TB) leukemia = test system: HL-60(TB) leukemia
SN12C renal = test system: SN12C renal
SNB-75 CNS = test system: SNB-75 CNS
SNB-19 CNS = test system: SNB-19 CNS
786-0 renal = test system: 786-0 renal
HCT-15 colon = test system: HCT-15 colon
NCI-H460 lung = test system: NCI-H460 lung

SMILES | TGI (NCI-H522 lung) | TGI (SK-MEL-2 melanoma) | TGI (KM20L2 colon) | TGI (HL-60(TB) leukemia) | TGI (SN12C renal) | TGI (SNB-75 CNS) | TGI (SNB-19 CNS) | TGI (786-0 renal) | GI50 (NCI-H522 lung) | GI50 (SK-MEL-2 melanoma) | GI50 (HL-60(TB) leukemia) | GI50 (SN12C renal) | GI50 (HCT-15 colon) | TGI (HCT-15 colon) | GI50 (SNB-75 CNS) | GI50 (SNB-19 CNS) | GI50 (NCI-H460 lung) | TGI (NCI-H460 lung) | GI50 (786-0 renal)
COC(=O)C1=Cc2cn(S(=O)(=O)c3ccc(C)cc3)c3cccc(c23)C(C=C(C)C)N1C(C)=O (stereo unspecified) | 20 µM | 29.5 µM | > 100 µM | 41.2 µM | > 100 µM | > 100 µM | > 100 µM | > 100 µM |  |  |  |  |  |  |  |  |  |  | 
CNC(=O)c1cc(Oc2ccc3nc(NC(=O)Nc4cc(C(F)(F)F)cc(C(F)(F)F)c4)sc3c2)ccn1 | 2.28 µM | 3.13 µM |  | 4.17 µM | 3.79 µM | 2.7 µM | 4.43 µM | 2.86 µM | 0.534 µM | 1.05 µM | 1.6 µM | 1.64 µM | 1.5 µM | 3.31 µM | 1 µM | 1.34 µM | 1.23 µM | 2.85 µM | 1.42 µM
COc1ccc(NC(=O)C2=CC(=O)c3ccc(O)cc3C2=O)c(OC)c1 |  |  | > 100 µM | > 100 µM | > 100 µM | > 100 µM | > 100 µM | > 100 µM |  |  |  |  |  | > 100 µM |  |  |  | > 100 µM | 
Cc1nc(-n2nc(-c3ccccc3)cc2-c2ccccc2)sc1C(/C=C/c1ccc([N+](=O)[O-])cc1)=N/NC(N)=S |  | > 100 µM | > 100 µM | 25.6 µM | > 100 µM | > 100 µM | > 100 µM | 43.6 µM |  |  |  |  |  | > 100 µM |  |  |  | > 100 µM | 
CCCCC1N=CNc2c1ccc1c2[nH]c2ccccc21 (stereo unspecified) | 3.57 µM | 8.89 µM |  | 3.68 µM | 7.8 µM | 5.54 µM | 24.9 µM | 3.34 µM |  |  |  |  |  | 4.72 µM |  |  |  | 4.22 µM | 
O=C(c1ccccc1)c1c2n(c3c1cc(O)c1ccccc13)CCN2 | 4.03 µM | 8.55 µM |  | 4.47 µM | 4.21 µM | 4.76 µM | 3.46 µM | 31.2 µM | 1.96 µM | 3.02 µM | 2.17 µM | 2 µM | 6.5 µM | 19.1 µM | 2.22 µM | 1.85 µM | 4.7 µM | 15.8 µM | 9.23 µM
N/C(=N\C(N)=N\c1nc2ccccc2s1)c1ccnc(Br)c1 | > 100 µM | > 100 µM |  | > 100 µM | > 100 µM | 6.89 µM | > 100 µM | > 100 µM | 3.22 µM | 3.81 µM | 3.02 µM | 5.57 µM | 3.92 µM | > 100 µM | 2.33 µM | 7.1 µM | 4.33 µM | > 100 µM | 5.88 µM
Cc1cc2nc3c4cc([N+](=O)[O-])ccc4n(CCN(C)C)c3nc2cc1C | 4.94 µM | 3.03 µM |  | 3.97 µM | > 54.8 µM | 2.7 µM | > 32 µM | 3.02 µM | 0.893 µM | 1 µM | 0.622 µM | 0.448 µM | 0.36 µM | 3.04 µM | 0.842 µM | 0.487 µM | 0.352 µM | 1.75 µM | 0.628 µM

Source: PubChem BioAssay (NCI)
